target: hepatitis C virus RNA dependant polymerase (NS5B) (Hepatitis C virus genotype 1b, UniProt P26663); experiment: Inhibition of NS5B RNA dependent RNA polymerase activity; format: biochemical; conditions: Table 2; HCV NS5B polymerase
Experimental: A suitable assay is described in the examples.
Inhibition of NS5B RNA Dependent RNA Polymerase Activity
The compounds of the invention were tested for inhibitory activity against the hepatitis C virus RNA dependant polymerase (NS5B), according to protocol described in WO 03/010141

hepatitis C virus RNA dependant polymerase (NS5B), sequence (P26663 2420-3010): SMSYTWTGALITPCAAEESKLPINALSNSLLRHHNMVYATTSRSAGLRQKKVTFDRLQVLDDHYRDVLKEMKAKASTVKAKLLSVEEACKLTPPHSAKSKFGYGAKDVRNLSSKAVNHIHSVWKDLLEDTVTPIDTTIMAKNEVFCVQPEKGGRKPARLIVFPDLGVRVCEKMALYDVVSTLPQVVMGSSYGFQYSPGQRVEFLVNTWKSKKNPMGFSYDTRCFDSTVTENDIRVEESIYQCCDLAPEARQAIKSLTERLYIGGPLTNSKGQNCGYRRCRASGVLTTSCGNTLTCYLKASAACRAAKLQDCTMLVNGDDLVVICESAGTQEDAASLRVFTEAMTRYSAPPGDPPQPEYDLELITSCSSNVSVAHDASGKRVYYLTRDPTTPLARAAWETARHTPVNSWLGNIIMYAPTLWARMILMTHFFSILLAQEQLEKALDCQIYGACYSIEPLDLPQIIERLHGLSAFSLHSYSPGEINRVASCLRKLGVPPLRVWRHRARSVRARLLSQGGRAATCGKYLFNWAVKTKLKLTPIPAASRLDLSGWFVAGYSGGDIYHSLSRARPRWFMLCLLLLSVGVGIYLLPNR

IC50	SMILES
< 200 nM	O=C(NS(=O)(=O)c1cc(F)ccc1F)c1ccc2c(C3CCCCC3)c(-c3ccoc3)n(CC(=O)N3CCOCC3)c2c1 [Example 2014]
< 200 nM	O=C(NS(=O)(=O)c1ccc(F)cc1)c1ccc2c(C3CCCCC3)c(-c3ccoc3)n(CC(=O)N3CCOCC3)c2c1 [Example 2015]
< 200 nM	Cc1ccccc1S(=O)(=O)NC(=O)c1ccc2c(C3CCCCC3)c(-c3ccoc3)n(CC(=O)N3CCOCC3)c2c1 [Example 2016]
< 200 nM	O=C(NS(=O)(=O)c1ccc([N+](=O)[O-])cc1)c1ccc2c(C3CCCCC3)c(-c3ccoc3)n(CC(=O)N3CCOCC3)c2c1 [Example 2018]
< 200 nM	O=C(NS(=O)(=O)c1ccc(Cl)cc1)c1ccc2c(C3CCCCC3)c(-c3ccoc3)n(CC(=O)N3CCOCC3)c2c1 [Example 2019]
< 200 nM	Cc1c(S(=O)(=O)NC(=O)c2ccc3c(C4CCCCC4)c(-c4ccoc4)n(CC(=O)N4CCOCC4)c3c2)sc2ccc(F)cc12 [Example 2020]
< 200 nM	Cc1ccc(S(=O)(=O)NC(=O)c2ccc3c(C4CCCCC4)c(-c4ccoc4)n(CC(=O)N4CCOCC4)c3c2)cc1 [Example 2022]
1000 to 10000 nM	CN(C(=O)c1ccc2c(C3CCCCC3)c(-c3ccoc3)n(CC(=O)N3CCOCC3)c2c1)S(=O)(=O)c1ccccc1 [Example 2023]
< 200 nM	O=C(NS(=O)(=O)c1cccc2cccnc12)c1ccc2c(C3CCCCC3)c(-c3ccoc3)n(CC(=O)N3CCOCC3)c2c1 [Example 2024]
< 200 nM	CC(C)(C)c1ccc(S(=O)(=O)NC(=O)c2ccc3c(C4CCCCC4)c(-c4ccoc4)n(CC(=O)N4CCOCC4)c3c2)cc1 [Example 2025]
< 200 nM	O=C(NS(=O)(=O)C1CC1)c1ccc2c(C3CCCCC3)c(-c3ccoc3)n(CC(=O)N3CCOCC3)c2c1 [Example 2026]
< 200 nM	O=C(NS(=O)(=O)CC(F)(F)F)c1ccc2c(C3CCCCC3)c(-c3ccoc3)n(CC(=O)N3CCOCC3)c2c1 [Example 2027]
< 200 nM	O=C(NS(=O)(=O)c1c(Cl)sc(Cl)c1Br)c1ccc2c(C3CCCCC3)c(-c3ccoc3)n(CC(=O)N3CCOCC3)c2c1 [Example 2029]
< 200 nM	O=C(NS(=O)(=O)c1cc(Cl)sc1Cl)c1ccc2c(C3CCCCC3)c(-c3ccoc3)n(CC(=O)N3CCOCC3)c2c1 [Example 2030]
200 to 1000 nM	N#Cc1ccccc1S(=O)(=O)NC(=O)c1ccc2c(C3CCCCC3)c(-c3ccoc3)n(CC(=O)N3CCOCC3)c2c1 [Example 2032]
< 200 nM	Cc1nn(C)c(Cl)c1S(=O)(=O)NC(=O)c1ccc2c(C3CCCCC3)c(-c3ccoc3)n(CC(=O)N3CCOCC3)c2c1 [Example 2033]
< 200 nM	Cc1noc(C)c1S(=O)(=O)NC(=O)c1ccc2c(C3CCCCC3)c(-c3ccoc3)n(CC(=O)N3CCOCC3)c2c1 [Example 2034]
< 200 nM	O=C(NS(=O)(=O)c1cccc2nsnc12)c1ccc2c(C3CCCCC3)c(-c3ccoc3)n(CC(=O)N3CCOCC3)c2c1 [Example 2035]
< 200 nM	O=C(NS(=O)(=O)c1c(F)cccc1F)c1ccc2c(C3CCCCC3)c(-c3ccoc3)n(CC(=O)N3CCOCC3)c2c1 [Example 2036]
< 200 nM	O=C(NS(=O)(=O)c1c(Cl)nc2sccn12)c1ccc2c(C3CCCCC3)c(-c3ccoc3)n(CC(=O)N3CCOCC3)c2c1 [Example 2037]
< 200 nM	CS(=O)(=O)c1ccccc1S(=O)(=O)NC(=O)c1ccc2c(C3CCCCC3)c(-c3ccoc3)n(CC(=O)N3CCOCC3)c2c1 [Example 2038]
< 200 nM	O=C(NS(=O)(=O)c1cccc2cnccc12)c1ccc2c(C3CCCCC3)c(-c3ccoc3)n(CC(=O)N3CCOCC3)c2c1 [Example 2039]
< 200 nM	COc1cc(C)ccc1S(=O)(=O)NC(=O)c1ccc2c(C3CCCCC3)c(-c3ccoc3)n(CC(=O)N3CCOCC3)c2c1 [Example 2040]
< 200 nM	Cc1c(S(=O)(=O)NC(=O)c2ccc3c(C4CCCCC4)c(-c4ccoc4)n(CC(=O)N4CCOCC4)c3c2)cnn1-c1ccccc1 [Example 2042]
200 to 1000 nM	CC(C)c1cc(C(C)C)c(S(=O)(=O)NC(=O)c2ccc3c(C4CCCCC4)c(-c4ccoc4)n(CC(=O)N4CCOCC4)c3c2)c(C(C)C)c1 [Example 2043]
< 200 nM	Cc1cc(C)c(S(=O)(=O)NC(=O)c2ccc3c(C4CCCCC4)c(-c4ccoc4)n(CC(=O)N4CCOCC4)c3c2)c(C)c1 [Example 2044]
< 200 nM	O=C(NS(=O)(=O)C(Cl)(Cl)Cl)c1ccc2c(C3CCCCC3)c(-c3ccoc3)n(CC(=O)N3CCOCC3)c2c1 [Example 2045]

same assay, conditions: Table 3; HCV NS5B polymerase

IC50	SMILES
< 200 nM	Nc1nc(-c2ccc(NC(=O)C3(NC(=O)c4ccc5c(C6CCCC6)c(-c6ccoc6)n(CC(=O)N6CCOCC6)c5c4)CCCNC3)cc2)cs1 (centres unmarked) [Example 3001]
< 200 nM	NC(=O)[C@]1(NC(=O)c2ccc3c(C4CCCCC4)c(-c4ccoc4)n(CC(=O)N4CCOCC4)c3c2)CCNC1 [Example 3004]
< 200 nM	CC(C)(NC(=O)Cn1c(-c2ccoc2)c(C2CCCCC2)c2ccc(C(=O)NC(C)(C)C(=O)Nc3ccc(/C=C/C(=O)O)cc3)cc21)C(=O)Nc1ccc(/C=C/C(=O)O)cc1 [Example 3005]
< 200 nM	CN1CCN(C(=O)Cn2c(-c3ccccn3)c(C3CCCCC3)c3ccc(C(=O)NC(C)(C)C(=O)Nc4ccc(/C=C/C(=O)O)cc4)cc32)CC1 [Example 3006]
< 200 nM	CN1CCN(C(=O)Cn2c(-c3ccccn3)c(C3CCCCC3)c3ccc(C(=O)NC4(C(=O)Nc5ccc(/C=C/C(=O)O)cc5)CCC4)cc32)CC1 [Example 3007]
< 200 nM	O=C(O)/C=C/c1ccc(NC(=O)C2(NC(=O)c3ccc4c(C5CCCCC5)c(-c5ccccn5)n(CC(=O)N5CCCC5)c4c3)CCC2)cc1 [Example 3008]
< 200 nM	O=C(O)/C=C/c1ccc(NC(=O)C2(NC(=O)c3ccc4c(C5CCCCC5)c(-c5ccccn5)n(CC(=O)N5CCCCC5)c4c3)CCC2)cc1 [Example 3009]
< 200 nM	O=C(O)/C=C/c1ccc(NC(=O)C2(NC(=O)c3ccc4c(C5CCCC5)c(-c5ccccn5)n(CC(=O)N5CCCC5)c4c3)CCC2)cc1 [Example 3010]
< 200 nM	O=C(O)C=Cc1ccc(NC(=O)C2(NC(=O)c3ccc4c(C5CCCC5)c(-c5ccccn5)n(CC(=O)N5CCCCC5)c4c3)CCC2)cc1 [Example 3011]

same assay, conditions: Table 4; class ranges

SMILES	IC50
CN1CCN(C(=O)Cn2c(-c3ccccn3)c(C3CCCCC3)c3ccc(C(N)=O)cc32)CC1 [Example 4001]	1000 to 10000 nM
COc1ccc(CNC(=O)c2ccc3c(C4CCCCC4)c(-c4ccccn4)n(CC(=O)N4CCN(C)CC4)c3c2)cc1OC [Example 4002]	200 to 1000 nM
COc1ccc(CNC(=O)c2ccc3c(C4CCCCC4)c(-c4ccoc4)n(CC(=O)N4CCN(C)CC4)c3c2)cc1OC [Example 4003]	< 200 nM
COc1ccc(CNC(=O)c2ccc3c(C4CCCCC4)c(-c4ccoc4)n(CC(=O)N4CCC(N5CCCC5)CC4)c3c2)cc1OC [Example 4004]	< 200 nM
C[C@@H](NC(=O)c1ccc2c(C3CCCCC3)c(-c3ccoc3)n(CC(=O)N3CCC(N4CCCC4)CC3)c2c1)c1ccccc1 [Example 4005]	< 200 nM
COc1ccc(CNC(=O)c2ccc3c(C4CCCCC4)c(-c4ccoc4)n(CC(=O)N4CCOCC4)c3c2)cc1OC [Example 4006]	< 200 nM

Second part, the molecule after the results:

IC50	SMILES
200 to 1000 nM	C[C@@H](NC(=O)c1ccc2c(C3CCCCC3)c(-c3ccoc3)n(CC(=O)N3CCOCC3)c2c1)c1ccccc1 [Example 4007]
200 to 1000 nM	CN1CCN(C(=O)Cn2c(-c3ccoc3)c(C3CCCCC3)c3ccc(C(=O)NC4CCCC4)cc32)CC1 [Example 4008]
200 to 1000 nM	CN1CCN(C(=O)Cn2c(-c3ccoc3)c(C3CCCCC3)c3ccc(C(=O)NCCC4CCCN4C)cc32)CC1 (centres unmarked) [Example 4009]
200 to 1000 nM	CCN1CCCC1CNC(=O)c1ccc2c(C3CCCCC3)c(-c3ccoc3)n(CC(=O)N3CCN(C)CC3)c2c1 (centres unmarked) [Example 4010]
200 to 1000 nM	CN1CCN(C(=O)Cn2c(-c3ccoc3)c(C3CCCCC3)c3ccc(C(=O)NCc4ccco4)cc32)CC1 [Example 4011]
200 to 1000 nM	CC(C)C(CO)NC(=O)c1ccc2c(C3CCCCC3)c(-c3ccoc3)n(CC(=O)N3CCN(C)CC3)c2c1 (centres unmarked) [Example 4012]
200 to 1000 nM	CN1CCN(C(=O)Cn2c(-c3ccoc3)c(C3CCCCC3)c3ccc(C(=O)NCc4ccc5c(c4)OCO5)cc32)CC1 [Example 4013]
200 to 1000 nM	CN1CCN(C(=O)Cn2c(-c3ccoc3)c(C3CCCCC3)c3ccc(C(=O)NCCN4CCOCC4)cc32)CC1 [Example 4014]
200 to 1000 nM	CN1CCN(C(=O)Cn2c(-c3ccoc3)c(C3CCCCC3)c3ccc(C(=O)NCc4ccccn4)cc32)CC1 [Example 4015]
200 to 1000 nM	CN1CCN(C(=O)Cn2c(-c3ccoc3)c(C3CCCCC3)c3ccc(C(=O)NCCc4ccccn4)cc32)CC1 [Example 4016]
200 to 1000 nM	CN1CCN(C(=O)Cn2c(-c3ccoc3)c(C3CCCCC3)c3ccc(C(=O)NCc4cccnc4)cc32)CC1 [Example 4017]
200 to 1000 nM	CN1CCN(C(=O)Cn2c(-c3ccoc3)c(C3CCCCC3)c3ccc(C(=O)NCc4ccncc4)cc32)CC1 [Example 4018]
200 to 1000 nM	CN1CCN(C(=O)Cn2c(-c3ccoc3)c(C3CCCCC3)c3ccc(C(=O)NC(C)(C)CO)cc32)CC1 [Example 4019]
200 to 1000 nM	COCC(C)NC(=O)c1ccc2c(C3CCCCC3)c(-c3ccoc3)n(CC(=O)N3CCN(C)CC3)c2c1 (centres unmarked) [Example 4020]
200 to 1000 nM	CN1CCN(C(=O)Cn2c(-c3ccoc3)c(C3CCCCC3)c3ccc(C(=O)NCc4ccccc4)cc32)CC1 [Example 4021]
200 to 1000 nM	CN1CCN(C(=O)Cn2c(-c3ccoc3)c(C3CCCCC3)c3ccc(C(=O)NCc4ccc(F)cc4)cc32)CC1 [Example 4022]
200 to 1000 nM	CN1CCN(C(=O)Cn2c(-c3ccoc3)c(C3CCCCC3)c3ccc(C(=O)NCC(O)c4ccccc4)cc32)CC1 (centres unmarked) [Example 4023]
1000 to 10000 nM	CC(CNC(=O)c1ccc2c(C3CCCCC3)c(-c3ccoc3)n(CC(=O)N3CCN(C)CC3)c2c1)c1ccccc1 (centres unmarked) [Example 4024]
200 to 1000 nM	CN(C)CCNC(=O)c1ccc2c(C3CCCCC3)c(-c3ccoc3)n(CC(=O)N3CCN(C)CC3)c2c1 [Example 4025]
1000 to 10000 nM	CN1CCN(C(=O)Cn2c(-c3ccoc3)c(C3CCCCC3)c3ccc(C(=O)NCCc4ccccc4)cc32)CC1 [Example 4026]
